Common to all, as to assay: NCI anticancer screen, dose series, 48 h
The test system of assay [1] is NCI-H226.
The test system of assay [2] is U-251.
Assay [3] relates to SK-MEL-2.
The test system of assay [4] is OVCAR-3.
The test system of assay [5] is M14.
Assay [6] concerns HCC 2998.
Assay [7] has as its system OVCAR-5.
The subject of assay [8] is ACHN.
The subject of assay [9] is A549.
Assay [10] deals with RXF 393.
For assay [11], the system named is KM12.
The test system of assay [12] is MDA-MB-435.
Assay [13] deals with SK-MEL-5.
The test system of assay [14] is SNB-75.
Assay [15] relates to SW-620.
The test system of assay [16] is MOLT-4.
For assay [17], the system named is NCI/ADR-RES.
Assay [18] deals with HT-29.
Assay [19] concerns MDA-MB-231.
The subject of assay [20] is SF-539.

This is an account of results in ChEMBL document CHEMBL1201862, “PubChem BioAssay data set” (2004).

SMILES strings stand for the structures.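 Tested at 5 concentrations; 48 h exposure; 96-well plates; endpoints linearly interpolated, else capped at highest concentration. GI50 is the concentration that inhibits growth by half.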 Active and inactive are the calls of the source. No stated cut-off is given here; in the data, active = GI50 up to about 1.1 µM and inactive = higher. A value given as a limit tells only on which side of the number the result lay.

In the case of `CCOC(=O)Nc1cc(NC(/C=N/NC(C)=O)C(=O)OCC)c(OC)cc1NC(C)=O` (centres undefined), the GI50 in assay [1], in [2], in assay [3], in assay [4], in [5] and in [6] was > 100 µM (inactive) throughout. Further, the GI50 in assay [7], in [8], in assay [9], in assay [10], in assay [11] and in [12] was > 100 µM (inactive) in each case. For the same compound, the GI50 in [13], in assay [14], in assay [15], in [16], in assay [17] and in [18] was > 100 µM (inactive) throughout. Further, in assay [19], the GI50 was > 100 µM (inactive).
Turning to `COc1ccc2nc(-c3ccccc3)cc(OCC(=O)O)c2c1`, the GI50 in [1], in assay [2], in assay [3], in assay [4], in assay [5] and in [6] was > 100 µM (inactive) throughout. Besides, the GI50 in assay [7], in [8], in assay [9], in assay [11], in [12] and in [13] was > 100 µM (inactive) in each case. The GI50 in assay [14], in assay [15], in [16], in assay [17], in assay [20] and in [18] was > 100 µM (inactive) in each case. In addition, the GI50 in assay [19] is > 100 µM (inactive).
For `CCC1OC2C(CC=C(C)C)=C3OC(C)(O)C(C)(CC)C(=O)C3=C3OC(=O)C=C1C32` (centres undefined), the GI50 in assay [1] is 25.9 µM (inactive); in assay [2] it was 36 µM (inactive); in [3], 17.3 µM (inactive); in assay [5], 27.7 µM (inactive); in assay [6] it was 34.8 µM (inactive); in assay [7] it was 65.3 µM (inactive). The GI50 in assay [8] is 26.3 µM (inactive); in assay [9], 22.6 µM (inactive); in assay [11] it was 34.4 µM (inactive); in assay [12] it was 31.4 µM (inactive); in [13], 16.5 µM (inactive); in assay [15] it was 27.5 µM (inactive). The GI50 was 20.2 µM (inactive) in assay [16], 27.8 µM (inactive) in assay [17], 8.55 µM (inactive) in assay [20] and 15.5 µM (inactive) in assay [19].
For the compound `COc1cc(C2c3cc4c(cc3C(O)C3CCC(=O)N23)OCO4)cc(OC)c1OC` (centres undefined), the GI50 in assay [1] is 37.5 µM (inactive); in assay [2], 26.1 µM (inactive); in assay [3] it was 27 µM (inactive); in assay [4], 31.6 µM (inactive); in assay [5], 38.9 µM (inactive); in [6] it was 34.4 µM (inactive). The GI50 was 43.2 µM (inactive) in assay [7]; 40 µM (inactive) in [8]; 39.3 µM (inactive) in [9]; 12.6 µM (inactive) in [11]; 3.54 µM (inactive) in assay [12]; 10.9 µM (inactive) in assay [13]. The GI50 was 26.7 µM (inactive) in [14]; 36.6 µM (inactive) in assay [15]; 32.2 µM (inactive) in assay [16]; 53 µM (inactive) in assay [17]; > 10 µM (inactive) in assay [20]; 29.9 µM (inactive) in [18]. For the same compound, in [19], the GI50 is > 100 µM (inactive).
On to `CN/C(=N\c1ccc(OC)c2ccccc12)SC`, for which the GI50 in assay [2] is > 10 µM (inactive); in [4], > 10 µM (inactive); in assay [5], > 10 µM (inactive); in assay [6], > 10 µM (inactive); in assay [7], 2.86 µM (inactive); in assay [8] it was > 10 µM (inactive). Besides, the GI50 in assay [9], in assay [11], in assay [12], in assay [13], in assay [14] and in assay [15] was > 10 µM (inactive) throughout. The GI50 in assay [16], in assay [17], in assay [20], in [18] and in assay [19] was > 10 µM (inactive) throughout.
Consider `O=S(=O)(c1ccccc1)n1c2cc3cccnc3nc2c2cccnc21`, for which the GI50 in [1] is > 100 µM (inactive); in [2] it was 40.5 µM (inactive); in assay [3], > 100 µM (inactive); in assay [4] it was 38.5 µM (inactive); in assay [5] it was > 100 µM (inactive); in [6], > 100 µM (inactive). In addition, the GI50 in [7] was > 100 µM (inactive); in assay [8], 62.7 µM (inactive); in assay [9], > 100 µM (inactive); in assay [10], 27.6 µM (inactive); in [11], > 100 µM (inactive); in [12], 25.5 µM (inactive). Moreover, the GI50 in assay [13] is 54.3 µM (inactive); in [14], 28.4 µM (inactive); in assay [15], 44.7 µM (inactive); in assay [16], 45.3 µM (inactive); in [17] it was > 100 µM (inactive); in [18] it was 60.4 µM (inactive). Besides, the GI50 in [19] is > 100 µM (inactive).
As for `Cc1cccc(N/C(=C(/C(Cl)=C(Cl)Cl)[N+](=O)[O-])n2nnc3ccccc32)c1`, the GI50 in [1] was 12.9 µM (inactive); in assay [2] it was 14 µM (inactive); in assay [3] it was 19.1 µM (inactive); in assay [4], 15.3 µM (inactive); in assay [5], 21.9 µM (inactive); in assay [6] it was 29.2 µM (inactive). For the same compound, the GI50 in assay [7] was 16.6 µM (inactive); in [8], 24.3 µM (inactive); in assay [9], 18 µM (inactive); in assay [11], 14.9 µM (inactive); in [12] it was 20.4 µM (inactive); in assay [15], 15.8 µM (inactive). The GI50 in assay [16] is 88.3 µM (inactive); in assay [17], 19.7 µM (inactive); in [20] it was 15.8 µM (inactive); in assay [18], 17.3 µM (inactive); in assay [19], 13.3 µM (inactive).
`CCN(CC)/C(SCc1ccccc1)=C(\C(Cl)=C(Cl)Cl)[N+](=O)[O-]`: the GI50 in [1] was 18.9 µM (inactive); in [2] it was 22.9 µM (inactive); in assay [3], 21.7 µM (inactive); in assay [4] it was 11.7 µM (inactive); in assay [5], 15.9 µM (inactive); in assay [6], 21.2 µM (inactive). The GI50 in [7] was 17.9 µM (inactive); in assay [8], 16.3 µM (inactive); in assay [9], 16.6 µM (inactive); in assay [10], 13.1 µM (inactive); in assay [11], 21 µM (inactive); in assay [12], 17.7 µM (inactive). The GI50 is 16.3 µM (inactive) in assay [13]; 21.8 µM (inactive) in assay [15]; 13.5 µM (inactive) in assay [16]; 17.1 µM (inactive) in assay [17]; 19.7 µM (inactive) in [20]; 25.8 µM (inactive) in [18]. Besides, the GI50 in assay [19] is 27.1 µM (inactive).
`C=CC(C)(C)n1cc(C2=C(O)C(=O)C(c3c(CC=C(C)C)[nH]c4ccccc34)=C(O)C2=O)c2ccccc21`: the GI50 in [1] was 1.53 µM (inactive); in assay [2] it was 1.1 µM (active); in assay [3] it was 1.59 µM (inactive); in assay [4], 1.32 µM (inactive); in assay [5], 1.34 µM (inactive); in assay [6], 1.04 µM (active). In addition, the GI50 in assay [7] is 2.89 µM (inactive); in assay [8], 1.56 µM (inactive); in assay [9] it was 0.624 µM (active); in assay [10] it was 1.74 µM (inactive); in [11], 0.979 µM (active); in [12], 0.711 µM (active). The GI50 in assay [13] was 1.87 µM (inactive); in [14] it was 0.796 µM (active); in assay [15], 3.43 µM (inactive); in assay [16] it was 1.6 µM (inactive); in assay [17] it was 2.47 µM (inactive); in assay [18] it was 2.28 µM (inactive). Also, the GI50 in [19] was 1.81 µM (inactive).
As to `CC1(C)C2CCC1(C)C(N/C(Sc1ccccc1)=C(/C(Cl)=C(Cl)Cl)[N+](=O)[O-])C2` (centres undefined), the GI50 in assay [1] was 16.8 µM (inactive); in assay [2] it was 11.4 µM (inactive); in assay [3], 12.5 µM (inactive); in [4], 4.92 µM (inactive); in assay [5], 13.2 µM (inactive); in assay [6], 15.2 µM (inactive). Also, the GI50 is 13.9 µM (inactive) in assay [7]; 13.5 µM (inactive) in [8]; 14.5 µM (inactive) in assay [9]; 4.8 µM (inactive) in assay [11]; 10.4 µM (inactive) in assay [12]; 15.6 µM (inactive) in assay [14]. Besides, the GI50 in [15] is 11.7 µM (inactive); in assay [16], 3.22 µM (inactive); in [17] it was 14 µM (inactive); in [20] it was 13.5 µM (inactive); in assay [18], 10.4 µM (inactive); in [19], 10.4 µM (inactive).
Regarding `C#CCN(Cc1ccc2[nH]c(N)nc(=O)c2c1)c1ccc(C(=O)NC(CCC(=O)O)C(=O)O)cc1` (centres undefined), the GI50 was > 100 µM (inactive) in assay [1]; 50.9 µM (inactive) in assay [2]; 9.71 µM (inactive) in assay [4]; 51.3 µM (inactive) in [5]; > 100 µM (inactive) in assay [6]; > 100 µM (inactive) in [7]. Also, the GI50 is 3.82 µM (inactive) in assay [8]; 53.5 µM (inactive) in assay [9]; > 100 µM (inactive) in assay [11]; > 100 µM (inactive) in assay [12]; > 100 µM (inactive) in [13]; > 100 µM (inactive) in assay [15]. Also, the GI50 in assay [16] was 5.4 µM (inactive); in [17] it was 36.6 µM (inactive); in assay [20], 0.506 µM (active); in [18] it was > 100 µM (inactive); in assay [19], > 100 µM (inactive).
